Measured values published in PubChem BioAssay AID743423 (Vanderbilt Specialized Chemistry Center, 2014).
pEC50: −log10 of the molar value. Active and inactive are the calls of the source. No rule for the calls is given here.

Biological target: Metabotropic glutamate receptor 4 (Homo sapiens) (UniProt Q14833)
Assay: mGlu4 positive allosteric modulator potency, dose response, selectivity assay for mGlu7/mGlu8 PAM project, CHO Gqi5 cells, Fluo-4 calcium (AID 743423)
Conditions: Fluo-4 calcium fluorescence

Chain of Metabotropic glutamate receptor 4 (Homo sapiens) (Q14833 whole entry, looked up): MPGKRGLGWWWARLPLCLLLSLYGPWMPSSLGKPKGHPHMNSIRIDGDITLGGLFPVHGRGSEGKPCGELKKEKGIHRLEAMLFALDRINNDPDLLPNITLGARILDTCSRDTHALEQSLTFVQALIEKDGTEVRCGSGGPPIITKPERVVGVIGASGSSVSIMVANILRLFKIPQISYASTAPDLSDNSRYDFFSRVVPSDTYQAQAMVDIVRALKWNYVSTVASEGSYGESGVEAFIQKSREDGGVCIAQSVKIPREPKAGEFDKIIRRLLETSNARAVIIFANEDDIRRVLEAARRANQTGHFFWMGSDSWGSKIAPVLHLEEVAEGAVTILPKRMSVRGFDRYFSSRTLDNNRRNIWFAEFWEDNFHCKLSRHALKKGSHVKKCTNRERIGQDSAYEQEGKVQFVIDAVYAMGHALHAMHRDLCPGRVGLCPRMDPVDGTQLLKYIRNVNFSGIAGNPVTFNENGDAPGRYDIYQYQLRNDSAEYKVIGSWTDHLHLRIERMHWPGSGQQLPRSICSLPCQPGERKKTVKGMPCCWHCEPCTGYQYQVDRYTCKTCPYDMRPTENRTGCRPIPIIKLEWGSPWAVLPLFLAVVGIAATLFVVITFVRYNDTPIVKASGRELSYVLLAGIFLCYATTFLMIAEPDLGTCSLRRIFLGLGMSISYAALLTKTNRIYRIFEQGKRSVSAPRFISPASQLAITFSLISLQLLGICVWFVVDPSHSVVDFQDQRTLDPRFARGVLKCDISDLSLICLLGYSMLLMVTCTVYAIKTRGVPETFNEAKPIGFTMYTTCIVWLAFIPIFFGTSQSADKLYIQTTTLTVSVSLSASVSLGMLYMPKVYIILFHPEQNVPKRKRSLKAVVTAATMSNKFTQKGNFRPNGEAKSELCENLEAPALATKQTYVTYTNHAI

SMILES	pEC50
COC(=O)c1ccc(-n2c(C)cc(C(=O)CSc3ccc(NC(C)=O)cc3)c2C)cc1	5.46
CC(=O)Nc1ccc(SCC(=O)c2cc(C)n(CC3COc4ccccc4O3)c2C)cc1 (stereo not drawn)	5.66
CC(=O)Nc1ccc(SCC(=O)c2cc(C)n(-c3cccc(F)c3)c2C)cc1	5.48
CC(=O)Nc1ccc(SCC(=O)c2cc(C)n(CCc3cccs3)c2C)cc1	5.59
CC(=O)Nc1ccc(SCC(=O)c2cc(C)n(-c3nc(C)cs3)c2C)cc1	5.00
COC(=O)c1ccc(-n2c(C)cc(C(=O)CSCc3ccc(OC)cc3)c2C)cc1	6.00
CC(=O)Nc1ccc(SCC(=O)c2cc(C)n(-c3ccc(S(N)(=O)=O)cc3)c2C)cc1	5.00
COC(=O)c1ccc(-n2c(C)cc(C(=O)COc3ccc(NC(C)=O)cc3)c2C)cc1	5.00
CC(=O)Nc1ccc(OCC(=O)c2cc(C)n(-c3ccc(OC(F)F)cc3)c2C)cc1	5.00
COC(=O)c1ccc(-n2c(C)cc(C(=O)CSCc3cccc(C)c3)c2C)cc1	5.00
COC(=O)c1ccc(-n2c(C)cc(C(=O)COc3ccc(OC(C)=O)cc3)c2C)cc1	5.00
COc1ccc(SCC(=O)c2cc(C)n(-c3ccc(OC(F)F)cc3)c2C)cc1	5.00
CCn1c(C)cc(C(=O)CSc2ccc(NC(C)=O)cc2)c1C	5.00
CCOc1ccc(-n2c(C)cc(C(=O)CSCc3ccc(OC)cc3)c2C)cc1	5.00
CCOc1ccc(-n2c(C)cc(C(=O)CSc3ccc(OC)cc3)c2C)cc1	5.00
COC(=O)c1ccc(-n2c(C)cc(C(=O)CSc3ccc(N(C)C(C)=O)cc3)c2C)cc1	5.00
CC(=O)Nc1ccc(SCC(=O)c2cc(C)n(CC3CCCO3)c2C)cc1 (stereo not drawn)	5.00

Same assay, conditions: Fluo-4 calcium fluorescence, at 30 µM (top of the series)

SMILES	% glutamate max response
COc1ccc(CSCC(=O)c2cc(C)n(-c3ccc(OC(F)F)cc3)c2C)cc1	inactive
Cc1ccc(CSCC(=O)c2cc(C)n(-c3ccc(OC(F)F)cc3)c2C)cc1	inactive
CC(=O)Nc1ccc(SCC(=O)c2cc(C)n(-c3ccccc3F)c2C)cc1	22.3
COC(=O)c1ccc(-n2c(C)cc(C(=O)CNc3ccc(C(=O)O)cc3)c2C)cc1	inactive
CCOc1ccc(-n2c(C)cc(C(=O)CSCc3cccc(C)c3)c2C)cc1	inactive
COC(=O)c1ccc(-n2c(C)cc(C(=O)COc3cccc(N(C)C)c3)c2C)cc1	inactive
